Test results reported in PubChem BioAssay AID2060492 (Molecular Pharmacology Branch, DTP, NCI, 2025).

Test system: 695427-040-R-J1-PDC complex spheroids, viability percent T/C
Experiment: Anticancer human tumor 695427-040-R-J1-PDC patient-derived colon adenocarcinoma cell line growth inhibition [GQUAD]
Conditions: for IC50: curve of first compound; for viability, T/C: stronger effect = lower value
In short: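 Viability of tumor cells grown as complex spheroids with endothelial and stromal cells, exposed to drug combinations. Top concentration at or near clinical Cmax (else 10 microM), diluted in half-log increments.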

[1] = second compound 0.0316 µM, first compound 0.0316 µM
[2] = second compound 0.0316 µM, first compound 0.1 µM
[3] = second compound 0.0316 µM, first compound 0.316 µM
[4] = second compound 0.0316 µM, first compound 1 µM
[5] = second compound 0.0316 µM, first compound 3.16 µM
[6] = second compound 0.0316 µM, first compound 10 µM
[7] = second compound 0.1 µM, first compound 0.0316 µM
[8] = second compound 0.1 µM, first compound 0.1 µM
[9] = second compound 0.1 µM, first compound 0.316 µM
[10] = second compound 0.1 µM, first compound 1 µM
[11] = second compound 0.1 µM, first compound 3.16 µM
[12] = second compound 0.1 µM, first compound 10 µM
[13] = second compound 0.316 µM, first compound 0.0316 µM
[14] = second compound 0.316 µM, first compound 0.1 µM
[15] = second compound 0.316 µM, first compound 0.316 µM
[16] = second compound 0.316 µM, first compound 1 µM
[17] = second compound 0.316 µM, first compound 3.16 µM
[18] = second compound 0.316 µM, first compound 10 µM
[19] = second compound 1 µM, first compound 0.0316 µM
[20] = second compound 1 µM, first compound 0.1 µM
[21] = second compound 1 µM, first compound 0.316 µM
[22] = second compound 1 µM, first compound 1 µM
[23] = second compound 1 µM, first compound 3.16 µM
[24] = second compound 1 µM, first compound 10 µM
[25] = second compound 3.16 µM, first compound 0.0316 µM
[26] = second compound 3.16 µM, first compound 0.1 µM
[27] = second compound 3.16 µM, first compound 0.316 µM
[28] = second compound 3.16 µM, first compound 1 µM
[29] = second compound 3.16 µM, first compound 3.16 µM
[30] = second compound 3.16 µM, first compound 10 µM
[31] = second compound 10 µM, first compound 0.0316 µM
[32] = second compound 10 µM, first compound 0.1 µM
[33] = second compound 10 µM, first compound 0.316 µM
[34] = second compound 10 µM, first compound 1 µM
[35] = second compound 10 µM, first compound 3.16 µM
[36] = second compound 10 µM, first compound 10 µM
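Also: spheroids exposed to compounds for seven days before readout.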

Cc1cccc(N(C)C(=O)C2C(O)CCN2c2nc(C)cc(C(F)(F)F)c2C#N)c1 (stereo not drawn) + Cc1cnc(CNC(=O)c2c(=O)c3ccc(N4CCCN(C)CC4)nc3n3c2sc2ccccc23)cn1
IC50 (second compound 0.0316 µM): > 10 µM
IC50 (second compound 0.1 µM): > 10 µM
IC50 (second compound 0.316 µM): > 10 µM
IC50 (second compound 1 µM): > 10 µM
IC50 (second compound 3.16 µM): < 0.0316 µM
IC50 (second compound 10 µM): < 0.0316 µM
viability, T/C [1]: 110%
viability, T/C [2]: 92.5%
viability, T/C [3]: 76.6%
viability, T/C [4]: 78.7%
viability, T/C [5]: 87.5%
viability, T/C [6]: 62.9%
viability, T/C [7]: 87%
viability, T/C [8]: 80%
viability, T/C [9]: 102%
viability, T/C [10]: 71%
viability, T/C [11]: 87.9%
viability, T/C [12]: 79.1%
viability, T/C [13]: 72.5%
viability, T/C [14]: 78.4%
viability, T/C [15]: 51.4%
viability, T/C [16]: 74.7%
viability, T/C [17]: 77.5%
viability, T/C [18]: 69.9%
viability, T/C [19]: 62.1%
viability, T/C [20]: 57.7%
viability, T/C [21]: 57.8%
viability, T/C [22]: 56.9%
viability, T/C [23]: 83%
viability, T/C [24]: 60.7%
viability, T/C [25]: 38.8%
viability, T/C [26]: 47%
viability, T/C [27]: 54.8%
viability, T/C [28]: 51.2%
viability, T/C [29]: 67.8%
viability, T/C [30]: 50.9%
viability, T/C [31]: 32.1%
viability, T/C [32]: 40%
viability, T/C [33]: 46.6%
viability, T/C [34]: 47.1%
viability, T/C [35]: 59.5%
viability, T/C [36]: 42.5%

Cc1[nH]c2ccccc2c1CCNCc1ccc(/C=C/C(=O)NO)cc1 + Cc1[nH]c2ccc(F)cc2c1-c1nc2c3cccnc3c3ncccc3c2[nH]1
IC50 (second compound 0.0316 µM): > 0.316 µM
IC50 (second compound 0.1 µM): > 0.316 µM
IC50 (second compound 0.316 µM): > 0.316 µM
IC50 (second compound 1 µM): > 0.316 µM
IC50 (second compound 3.16 µM): > 0.316 µM
IC50 (second compound 10 µM): > 0.316 µM
viability, T/C (second compound 0.0316 µM, first compound 0.000999 µM): 109%
viability, T/C (second compound 0.0316 µM, first compound 0.00316 µM): 90%
viability, T/C (second compound 0.0316 µM, first compound 0.00999 µM): 101%
viability, T/C [1]: 102%
viability, T/C (second compound 0.0316 µM, first compound 0.0999 µM): 106%
viability, T/C [3]: 94.5%
viability, T/C (second compound 0.1 µM, first compound 0.000999 µM): 115%
viability, T/C (second compound 0.1 µM, first compound 0.00316 µM): 94.5%
viability, T/C (second compound 0.1 µM, first compound 0.00999 µM): 91.1%
viability, T/C [7]: 93.4%
viability, T/C (second compound 0.1 µM, first compound 0.0999 µM): 95.7%
viability, T/C [9]: 88.6%
viability, T/C (second compound 0.316 µM, first compound 0.000999 µM): 98.8%
viability, T/C (second compound 0.316 µM, first compound 0.00316 µM): 84.8%
viability, T/C (second compound 0.316 µM, first compound 0.00999 µM): 94.2%
viability, T/C [13]: 104%
viability, T/C (second compound 0.316 µM, first compound 0.0999 µM): 100%
viability, T/C [15]: 86.7%
viability, T/C (second compound 1 µM, first compound 0.000999 µM): 94.3%
viability, T/C (second compound 1 µM, first compound 0.00316 µM): 88.6%
viability, T/C (second compound 1 µM, first compound 0.00999 µM): 96.8%
viability, T/C [19]: 93.5%
viability, T/C (second compound 1 µM, first compound 0.0999 µM): 98.9%
viability, T/C [21]: 90.8%
viability, T/C (second compound 3.16 µM, first compound 0.000999 µM): 75.2%
viability, T/C (second compound 3.16 µM, first compound 0.00316 µM): 78.3%
viability, T/C (second compound 3.16 µM, first compound 0.00999 µM): 86%
viability, T/C [25]: 74.5%
viability, T/C (second compound 3.16 µM, first compound 0.0999 µM): 78%
viability, T/C [27]: 67.3%
viability, T/C (second compound 10 µM, first compound 0.000999 µM): 74.8%
viability, T/C (second compound 10 µM, first compound 0.00316 µM): 77.6%
viability, T/C (second compound 10 µM, first compound 0.00999 µM): 71.8%
viability, T/C [31]: 75.9%
viability, T/C (second compound 10 µM, first compound 0.0999 µM): 74.8%
viability, T/C [33]: 63.4%

Nc1ccn(C2OC(CO)C(O)C2(F)F)c(=O)n1 (stereo not drawn) + Cc1cnc(CNC(=O)c2c(=O)c3ccc(N4CCCN(C)CC4)nc3n3c2sc2ccccc23)cn1
IC50 (second compound 0.0316 µM): > 10 µM
IC50 (second compound 0.1 µM): > 10 µM
IC50 (second compound 0.316 µM): > 10 µM
IC50 (second compound 1 µM): > 10 µM
IC50 (second compound 3.16 µM): < 0.0316 µM
IC50 (second compound 10 µM): < 0.0316 µM
viability, T/C [1]: 91.9%
viability, T/C [2]: 81.2%
viability, T/C [3]: 73.6%
viability, T/C [4]: 49.4%
viability, T/C [5]: 55.1%
viability, T/C [6]: 53.9%
viability, T/C [7]: 93.8%
viability, T/C [8]: 72.5%
viability, T/C [9]: 65.9%
viability, T/C [10]: 52%
viability, T/C [11]: 56.4%
viability, T/C [12]: 61.3%
viability, T/C [13]: 70%
viability, T/C [14]: 66%
viability, T/C [15]: 61.7%
viability, T/C [16]: 64.8%
viability, T/C [17]: 64.2%
viability, T/C [18]: 53.5%
viability, T/C [19]: 60.6%
viability, T/C [20]: 55.2%
viability, T/C [21]: 54.9%
viability, T/C [22]: 52.8%
viability, T/C [23]: 56.4%
viability, T/C [24]: 54.6%
viability, T/C [25]: 42.7%
viability, T/C [26]: 50.9%
viability, T/C [27]: 54.3%
viability, T/C [28]: 47.3%
viability, T/C [29]: 46.4%
viability, T/C [30]: 36%
viability, T/C [31]: 35.1%
viability, T/C [32]: 41.7%
viability, T/C [33]: 40.1%
viability, T/C [34]: 29%
viability, T/C [35]: 36.7%
viability, T/C [36]: 29.8%

COc1cc(C2c3cc4c(cc3C(OC3OC5COC(C)OC5C(O)C3O)C3COC(=O)C23)OCO4)cc(OC)c1O (stereo not drawn) + Cc1cnc(CNC(=O)c2c(=O)c3ccc(N4CCCN(C)CC4)nc3n3c2sc2ccccc23)cn1
IC50 (second compound 0.0316 µM): > 10 µM
IC50 (second compound 0.1 µM): > 10 µM
IC50 (second compound 0.316 µM): > 10 µM
IC50 (second compound 1 µM): > 10 µM
IC50 (second compound 3.16 µM): < 0.0316 µM
IC50 (second compound 10 µM): < 0.0316 µM
viability, T/C [1]: 87.3%
viability, T/C [2]: 94.9%
viability, T/C [3]: 92.7%
viability, T/C [4]: 54.4%
viability, T/C [5]: 64.1%
viability, T/C [6]: 60.3%
viability, T/C [7]: 84.8%
viability, T/C [8]: 79.2%
viability, T/C [9]: 70.3%
viability, T/C [10]: 62.9%
viability, T/C [11]: 75.5%
viability, T/C [12]: 65.2%
viability, T/C [13]: 71.3%
viability, T/C [14]: 79.2%
viability, T/C [15]: 70.5%
viability, T/C [16]: 63%
viability, T/C [17]: 73%
viability, T/C [18]: 69.7%
viability, T/C [19]: 47.5%
viability, T/C [20]: 74.7%
viability, T/C [21]: 71.3%
viability, T/C [22]: 59.8%
viability, T/C [23]: 70%
viability, T/C [24]: 55.7%
viability, T/C [25]: 33.4%
viability, T/C [26]: 50.7%
viability, T/C [27]: 46.3%
viability, T/C [28]: 50%
viability, T/C [29]: 50.9%
viability, T/C [30]: 45.7%
viability, T/C [31]: 38.8%
viability, T/C [32]: 34.7%
viability, T/C [33]: 41.8%
viability, T/C [34]: 45.4%
viability, T/C [35]: 56%
viability, T/C [36]: 36.7%
